Experimental data taken from ChEMBL document CHEMBL5316318, “Structural Modification and Pharmacological Evaluation of Substituted Quinoline-5,8-diones as Potent NSD2 Inhibitors” (J Med Chem, 2023).
Active and inactive are the calls of the source. The calls are words filed in the database; no cut-off is given here.

Experiments:
[1] = target: Serine/threonine-protein kinase mTOR (Homo sapiens) (UniProt P42345); experiment: Modulation of mTOR signaling pathway in human KMS-11 cells at 1 uM incubated for 48 hrs by RNA-Seq analysis; assay type: cell-based; conditions: filed as modulator
KMS-11 [2] = experiment: Antiproliferative activity against human KMS-11 cells assessed as inhibition of cell growth incubated for 6 days by CCK-8 assay; assay type: functional, cell-based; conditions: KMS-11, 144 h
[3] = Observed clearance in ICR mouse at 1 mg/kg, iv measured for 24 hrs by LC-MS/MS analysis; assay type: ADME, organism-based; conditions: in vivo
[4] = target: Histone-lysine N-methyltransferase NSD3 (Homo sapiens, UniProt Q9BZ95); experiment: Inhibition of NSD3 (unknown origin)
[5] = target: Histone-lysine N-methyltransferase EZH2 (Homo sapiens, UniProt Q15910); experiment: Inhibition of EZH2 (unknown origin) using SAM as substrate preincubated for 10 mins followed by substrate addition and measured after 4 hrs by HTRF analysis
[6] = target: Protein arginine N-methyltransferase 5 (Homo sapiens, UniProt O14744); experiment: Inhibition of PRMT5 (unknown origin) by AlphaLISA assay
[7] = target: Histone-lysine N-methyltransferase 2A (Homo sapiens, UniProt Q03164); experiment: Inhibition of MLL1 (unknown origin) using SAM as substrate preincubated for 10 mins followed by substrate addition and measured after 4 hrs by HTRF analysis
[8] = target: Histone-lysine N-methyltransferase 2D (Homo sapiens, UniProt O14686); experiment: Inhibition of MLL2 (unknown origin) using SAM as substrate preincubated for 10 mins followed by substrate addition and measured after 4 hrs by HTRF analysis
OPM-2 = experiment: Antiproliferative activity against NSD2 translocated human OPM-2 cells assessed as inhibition of cell growth incubated for 6 days by CCK-8 assay; assay type: functional, cell-based; conditions: OPM-2, 144 h
RS4-11 = experiment: Antiproliferative activity against human RS4-11 cells harboring NSD2 E1099K mutant assessed as inhibition of cell growth incubated for 6 days by CCK-8 assay; assay type: functional, cell-based; conditions: RS4-11, 144 h
THP-1 = experiment: Antiproliferative activity against human THP-1 cells harboring wild type NSD2 assessed as inhibition of cell growth incubated for 6 days by CCK-8 assay; assay type: functional, cell-based; conditions: THP-1, 144 h
OCI-AML2 = experiment: Antiproliferative activity against human OCI-AML2 cells harboring wild type NSD2 assessed as inhibition of cell growth incubated for 6 days by CCK-8 assay; assay type: functional, cell-based; conditions: OCI-AML2, 144 h
CMK = experiment: Antiproliferative activity against human CMK cells harboring wild type NSD2 assessed as inhibition of cell growth incubated for 6 days by CCK-8 assay; assay type: functional, cell-based; conditions: 144 h
U2932 = experiment: Antiproliferative activity against human U2932 cells assessed as inhibition of cell growth incubated for 6 days by CCK-8 assay; assay type: functional, cell-based; conditions: U2932, 144 h
[9] = Antiproliferative activity against human MINO cells assessed as inhibition of cell growth incubated for 6 days by CCK-8 assay; assay type: functional, cell-based; conditions: 144 h
[10] = target: Hepatocyte growth factor receptor (Homo sapiens) (UniProt P08581); experiment: Inhibition of MET transcriptional activation in human KMS-11 cells assessed as reduction in MET mRNA expression at 0.5 uM by qRT-PCR analysis; assay type: cell-based
[11] = target: Basement membrane-specific heparan sulfate proteoglycan core protein (Homo sapiens) (UniProt P98160); experiment: Inhibition of HSPG2 transcriptional activation in human KMS-11 cells assessed as reduction in HSPG2 mRNA expression at 0.5 uM by qRT-PCR analysis; assay type: cell-based
[12] = target: Protransforming growth factor alpha (Homo sapiens) (UniProt P01135); experiment: Inhibition of TGFA transcriptional activation in human KMS-11 cells assessed as reduction in H3K36me2 level in promoter region by ChIP-qPCR analysis; assay type: cell-based
[13] = target: Ras-related protein R-Ras2 (Homo sapiens) (UniProt P62070); experiment: Inhibition of RRAS2 transcriptional activation in human KMS-11 cells assessed as reduction in H3K36me2 level in promoter region by ChIP-qPCR analysis; assay type: cell-based
[14] = target: Neural cell adhesion molecule 1 (Homo sapiens) (UniProt P13591); experiment: Inhibition of NCAM1 transcriptional activation in human KMS-11 cells assessed as reduction in H3K36me2 level in promoter region by ChIP-qPCR analysis; assay type: cell-based
KMS-11 [15] = experiment: Induction of apoptosis in human KMS-11 cells assessed as live cells at 0.2 uM incubated for 72 hrs by Annexin V-FITC/PI staining based flow cytometry analysis (reference value: 83.1%); assay type: functional
KMS-11 [16] = experiment: Induction of apoptosis in human KMS-11 cells assessed as early apoptotic cells at 0.2 uM incubated for 72 hrs by Annexin V-FITC/PI staining based flow cytometry analysis (reference value: 3.96%); assay type: functional
KMS-11 [17] = experiment: Induction of apoptosis in human KMS-11 cells assessed as late apoptotic cells at 0.2 uM incubated for 72 hrs by Annexin V-FITC/PI staining based flow cytometry analysis (reference value: 6.47%); assay type: functional
KMS-11 [18] = experiment: Induction of apoptosis in human KMS-11 cells assessed as early apoptotic cells at 0.5 uM incubated for 72 hrs by Annexin V-FITC/PI staining based flow cytometry analysis (reference value: 3.96%); assay type: functional
KMS-11 [19] = experiment: Induction of apoptosis in human KMS-11 cells assessed as late apoptotic cells at 0.5 uM incubated for 72 hrs by Annexin V-FITC/PI staining based flow cytometry analysis (reference value: 6.47%); assay type: functional
KMS-11 [20] = experiment: Induction of apoptosis in human KMS-11 cells assessed as dead cells at 0.5 uM incubated for 72 hrs by Annexin V-FITC/PI staining based flow cytometry analysis (reference value: 6.48%); assay type: functional
KMS-11 [21] = experiment: Induction of apoptosis in human KMS-11 cells assessed as live cells at 0.8 uM incubated for 72 hrs by Annexin V-FITC/PI staining based flow cytometry analysis (reference value: 83.1%); assay type: functional
KMS-11 [22] = experiment: Induction of apoptosis in human KMS-11 cells assessed as early apoptotic cells at 0.8 uM incubated for 72 hrs by Annexin V-FITC/PI staining based flow cytometry analysis (reference value: 3.96%); assay type: functional
KMS-11 [23] = experiment: Induction of apoptosis in human KMS-11 cells assessed as late apoptotic cells at 0.8 uM incubated for 72 hrs by Annexin V-FITC/PI staining based flow cytometry analysis (reference value: 6.47%); assay type: functional
KMS-11 [24] = experiment: Induction of apoptosis in human KMS-11 cells assessed as dead cells at 0.8 uM incubated for 72 hrs by Annexin V-FITC/PI staining based flow cytometry analysis (reference value: 6.48%); assay type: functional
KMS-11 [25] = experiment: Induction of apoptosis in human KMS-11 cells assessed as downregulation of BCL-XL protein expression at 0.2 to 0.8 uM by Western blot analysis; assay type: functional, cell-based; conditions: dose 0.2-0.8 µM
KMS-11 [26] = experiment: Induction of apoptosis in human KMS-11 cells assessed as upregulation of BIM protein expression at 0.2 to 0.8 uM by Western blot analysis; assay type: functional, cell-based; conditions: dose 0.2-0.8 µM
[27] = Toxicity in SCID mouse xenografted with human KMS-11 cells assessed as body weight loss at 75 to 150 mg/kg, po administered daily for 21 days and measured every 3 days; assay type: organism-based; conditions: in vivo, 504 h, dose 75-150 mg/kg, time 21 day

Protein arginine N-methyltransferase 5, sequence (O14744 whole entry): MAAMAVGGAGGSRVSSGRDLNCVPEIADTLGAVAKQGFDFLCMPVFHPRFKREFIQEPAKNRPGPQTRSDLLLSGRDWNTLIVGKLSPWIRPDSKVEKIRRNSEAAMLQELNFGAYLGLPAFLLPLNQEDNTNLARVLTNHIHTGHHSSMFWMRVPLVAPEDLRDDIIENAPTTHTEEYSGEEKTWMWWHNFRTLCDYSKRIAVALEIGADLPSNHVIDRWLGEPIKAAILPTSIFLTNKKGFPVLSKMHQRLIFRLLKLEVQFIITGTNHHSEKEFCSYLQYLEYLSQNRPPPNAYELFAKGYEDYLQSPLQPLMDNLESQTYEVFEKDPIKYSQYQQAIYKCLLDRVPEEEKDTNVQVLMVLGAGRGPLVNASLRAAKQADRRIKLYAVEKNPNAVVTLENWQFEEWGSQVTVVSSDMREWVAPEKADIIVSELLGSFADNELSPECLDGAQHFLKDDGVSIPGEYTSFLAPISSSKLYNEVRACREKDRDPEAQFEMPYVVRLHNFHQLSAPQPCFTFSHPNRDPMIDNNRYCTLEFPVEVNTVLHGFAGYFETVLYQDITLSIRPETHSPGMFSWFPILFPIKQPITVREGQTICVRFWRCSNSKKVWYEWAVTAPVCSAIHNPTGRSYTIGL
Protransforming growth factor alpha (Homo sapiens), sequence (P01135 whole entry): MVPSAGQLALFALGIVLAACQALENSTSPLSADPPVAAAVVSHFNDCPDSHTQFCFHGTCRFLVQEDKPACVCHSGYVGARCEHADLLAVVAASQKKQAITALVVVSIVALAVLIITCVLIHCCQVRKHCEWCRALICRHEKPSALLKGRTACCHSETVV
Hepatocyte growth factor receptor (Homo sapiens), sequence (P08581 whole entry): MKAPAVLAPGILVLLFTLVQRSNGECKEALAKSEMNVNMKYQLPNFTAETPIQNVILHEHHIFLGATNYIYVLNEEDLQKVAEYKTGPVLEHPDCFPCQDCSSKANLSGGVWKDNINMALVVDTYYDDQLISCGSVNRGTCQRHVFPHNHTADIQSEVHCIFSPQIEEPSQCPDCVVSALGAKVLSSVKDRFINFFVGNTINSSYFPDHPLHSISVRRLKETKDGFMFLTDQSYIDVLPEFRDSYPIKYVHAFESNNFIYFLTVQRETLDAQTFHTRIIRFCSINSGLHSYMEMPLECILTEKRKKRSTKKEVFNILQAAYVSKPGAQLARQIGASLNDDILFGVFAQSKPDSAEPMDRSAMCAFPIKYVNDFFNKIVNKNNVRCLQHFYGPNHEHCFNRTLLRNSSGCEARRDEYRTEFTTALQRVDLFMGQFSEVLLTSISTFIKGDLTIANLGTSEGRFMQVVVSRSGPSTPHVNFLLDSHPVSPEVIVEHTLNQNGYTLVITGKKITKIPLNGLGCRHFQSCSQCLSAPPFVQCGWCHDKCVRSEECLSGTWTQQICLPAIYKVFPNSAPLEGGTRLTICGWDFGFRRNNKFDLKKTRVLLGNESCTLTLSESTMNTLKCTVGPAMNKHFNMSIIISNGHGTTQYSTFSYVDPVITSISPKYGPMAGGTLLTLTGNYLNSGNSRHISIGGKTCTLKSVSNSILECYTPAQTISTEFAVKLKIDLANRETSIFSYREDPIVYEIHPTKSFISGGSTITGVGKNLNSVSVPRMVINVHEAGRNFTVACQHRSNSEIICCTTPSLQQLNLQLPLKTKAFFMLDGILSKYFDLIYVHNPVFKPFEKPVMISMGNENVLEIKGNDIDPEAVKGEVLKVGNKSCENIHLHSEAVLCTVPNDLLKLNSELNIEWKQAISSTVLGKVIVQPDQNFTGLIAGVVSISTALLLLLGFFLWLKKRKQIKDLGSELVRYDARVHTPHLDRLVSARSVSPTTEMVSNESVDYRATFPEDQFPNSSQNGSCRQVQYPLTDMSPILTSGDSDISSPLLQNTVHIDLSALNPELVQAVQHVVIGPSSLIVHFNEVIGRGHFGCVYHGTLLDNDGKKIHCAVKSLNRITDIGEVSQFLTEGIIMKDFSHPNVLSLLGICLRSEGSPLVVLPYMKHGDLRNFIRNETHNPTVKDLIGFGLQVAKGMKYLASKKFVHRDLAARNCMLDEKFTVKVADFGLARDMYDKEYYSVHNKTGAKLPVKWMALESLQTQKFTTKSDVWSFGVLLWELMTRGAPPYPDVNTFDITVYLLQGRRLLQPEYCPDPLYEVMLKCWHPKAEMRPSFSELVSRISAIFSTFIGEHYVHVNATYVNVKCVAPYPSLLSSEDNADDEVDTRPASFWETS
Neural cell adhesion molecule 1 (Homo sapiens), sequence (P13591 whole entry): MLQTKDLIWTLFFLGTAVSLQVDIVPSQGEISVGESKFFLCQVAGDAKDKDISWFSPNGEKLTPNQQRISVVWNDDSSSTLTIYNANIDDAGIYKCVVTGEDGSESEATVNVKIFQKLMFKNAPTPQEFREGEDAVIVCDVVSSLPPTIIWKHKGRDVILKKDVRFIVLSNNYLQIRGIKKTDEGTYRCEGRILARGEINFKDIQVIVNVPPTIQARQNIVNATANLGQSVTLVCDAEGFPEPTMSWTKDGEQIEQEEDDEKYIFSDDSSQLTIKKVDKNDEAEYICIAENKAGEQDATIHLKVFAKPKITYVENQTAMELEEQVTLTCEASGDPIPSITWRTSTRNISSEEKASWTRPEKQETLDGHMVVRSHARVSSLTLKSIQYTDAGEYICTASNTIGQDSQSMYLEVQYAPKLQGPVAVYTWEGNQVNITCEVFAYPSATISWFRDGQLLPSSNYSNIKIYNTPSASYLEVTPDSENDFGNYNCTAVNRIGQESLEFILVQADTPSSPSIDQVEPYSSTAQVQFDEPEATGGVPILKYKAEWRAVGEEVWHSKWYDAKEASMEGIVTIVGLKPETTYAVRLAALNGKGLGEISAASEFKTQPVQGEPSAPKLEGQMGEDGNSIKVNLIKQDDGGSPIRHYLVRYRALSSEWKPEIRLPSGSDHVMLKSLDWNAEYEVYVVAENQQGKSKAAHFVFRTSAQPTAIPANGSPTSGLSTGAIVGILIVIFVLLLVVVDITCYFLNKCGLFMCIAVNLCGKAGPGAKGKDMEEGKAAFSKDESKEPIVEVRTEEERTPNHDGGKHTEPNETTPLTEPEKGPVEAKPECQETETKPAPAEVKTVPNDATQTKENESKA
Histone-lysine N-methyltransferase NSD3, sequence (Q9BZ95 whole entry): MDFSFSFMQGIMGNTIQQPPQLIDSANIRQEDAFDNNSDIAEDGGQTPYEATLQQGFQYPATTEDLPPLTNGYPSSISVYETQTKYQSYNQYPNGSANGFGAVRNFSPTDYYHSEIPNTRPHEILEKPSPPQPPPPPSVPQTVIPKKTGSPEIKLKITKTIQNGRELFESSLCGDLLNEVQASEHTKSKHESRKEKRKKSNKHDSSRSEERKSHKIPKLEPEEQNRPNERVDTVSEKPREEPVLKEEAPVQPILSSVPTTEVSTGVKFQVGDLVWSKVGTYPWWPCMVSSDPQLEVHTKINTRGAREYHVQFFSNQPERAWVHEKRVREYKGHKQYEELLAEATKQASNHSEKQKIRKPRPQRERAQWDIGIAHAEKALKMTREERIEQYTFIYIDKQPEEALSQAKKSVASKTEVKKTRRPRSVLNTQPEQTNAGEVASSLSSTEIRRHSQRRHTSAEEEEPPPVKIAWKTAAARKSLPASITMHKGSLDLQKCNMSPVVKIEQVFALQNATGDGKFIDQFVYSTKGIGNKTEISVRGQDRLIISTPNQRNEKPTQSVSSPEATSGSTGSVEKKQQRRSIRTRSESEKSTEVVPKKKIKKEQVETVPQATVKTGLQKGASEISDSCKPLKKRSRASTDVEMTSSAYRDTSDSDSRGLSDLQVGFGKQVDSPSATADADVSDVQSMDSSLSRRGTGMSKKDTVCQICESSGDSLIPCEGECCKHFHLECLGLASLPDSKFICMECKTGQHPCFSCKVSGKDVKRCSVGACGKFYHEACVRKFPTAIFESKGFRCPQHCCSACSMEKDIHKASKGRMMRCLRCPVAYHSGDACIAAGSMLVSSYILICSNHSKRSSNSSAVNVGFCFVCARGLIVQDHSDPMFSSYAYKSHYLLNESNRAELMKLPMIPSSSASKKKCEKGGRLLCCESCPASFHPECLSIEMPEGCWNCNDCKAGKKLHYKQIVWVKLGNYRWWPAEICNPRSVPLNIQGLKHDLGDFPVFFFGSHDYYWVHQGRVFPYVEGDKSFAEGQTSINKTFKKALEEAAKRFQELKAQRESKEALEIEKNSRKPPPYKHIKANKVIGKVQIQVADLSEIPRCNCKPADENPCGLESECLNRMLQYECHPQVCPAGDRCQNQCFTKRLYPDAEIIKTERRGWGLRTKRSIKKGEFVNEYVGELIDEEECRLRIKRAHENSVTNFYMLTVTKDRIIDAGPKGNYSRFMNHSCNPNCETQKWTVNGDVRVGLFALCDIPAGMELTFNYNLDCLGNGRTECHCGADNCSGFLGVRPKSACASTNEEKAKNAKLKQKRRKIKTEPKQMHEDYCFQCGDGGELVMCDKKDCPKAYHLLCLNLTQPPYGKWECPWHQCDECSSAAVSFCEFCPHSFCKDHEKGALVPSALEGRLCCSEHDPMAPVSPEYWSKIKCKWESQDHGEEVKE
Ras-related protein R-Ras2 (Homo sapiens), sequence (P62070 whole entry): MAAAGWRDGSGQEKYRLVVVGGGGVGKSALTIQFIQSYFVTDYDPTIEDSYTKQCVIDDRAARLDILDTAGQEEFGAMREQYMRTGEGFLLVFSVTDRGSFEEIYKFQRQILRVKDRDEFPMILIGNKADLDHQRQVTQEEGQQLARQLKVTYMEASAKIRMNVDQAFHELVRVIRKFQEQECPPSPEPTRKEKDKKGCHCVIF

For `CC#CC(=O)NC12CC(NC3=C(Cl)C(=O)c4ncccc4C3=O)(C1)C2`, the Activity [1] was “Active”, the IC50 (KMS-11 [2]) was 270 nM and the clearance [3] was 3.8 mL/min/kg. For the same compound, the IC50 [4] was 750 nM, the IC50 [5] was 250 nM and the IC50 [6] was greater than 10000 nM. It also gave an IC50 [7] greater than 10000 nM, an IC50 [8] greater than 10000 nM and an IC50 (OPM-2) of 2090 nM. The IC50 (RS4-11) was 304 nM, the IC50 (THP-1) was 2640 nM and the IC50 (OCI-AML2) was 2600 nM. For the same compound, the IC50 (CMK) was 2600 nM, the IC50 (U2932) was 9110 nM and the IC50 [9] was 9900 nM. For the same compound, the inhibition [10] was “Active”, the inhibition [11] was “Active” and the inhibition [12] was “Active”. For the same compound, the inhibition [13] was “Active”, the inhibition [14] was “Active” and the Activity (KMS-11 [15]) was 81.3%. The Activity (KMS-11 [16]) was 4.34%, the Activity (KMS-11 [17]) was 7.79% and the Activity (KMS-11 [18]) was 14.1%. It also gave an Activity (KMS-11 [19]) of 15.7%, an Activity (KMS-11 [20]) of 6.33% and an Activity (KMS-11 [21]) of 55%. For the same compound, the Activity (KMS-11 [22]) was 19.3%, the Activity (KMS-11 [23]) was 19.7% and the Activity (KMS-11 [24]) was 5.98%. For the same compound, the Activity (KMS-11 [25]) was “Active”, the Activity (KMS-11 [26]) was “Active” and the Activity [27] was “Non-Toxic”.
